Measured values taken from patent publication EP4678638A1, “NEW E3 UBIQUITIN LIGASE LIGAND, PROTEIN DEGRADATION AGENT AND USE THEREOF” (priority 2023, dated 2024).

Experiments:
CDK4 = biological target: T1, CDK4 (Homo sapiens, UniProt P11802); assay: Western blot degradation of CDK4 (MDA-MB-231 Cell); format: cell-based; conditions: Table D3
T1 construct: evaluate the effects of the compounds of the present disclosure on the expression of target proteins in cells; endogenous in cells; host or cells: MDA-MB-231
Method: (§1) Conventional Western blot assay was performed to evaluate the effects of the compounds of the present disclosure on the expression of target proteins in cells.
(§2) (1) Cell Seeding and Protein Harvesting: The selected cells were processed according to the cell seeding procedure and protein harvesting procedure in Table III-2. Table III-2 Cell Seeding and Protein Harvesting Procedures
(§3) (2) To the collected supernatant, 5X SDS sample loading buffer was added, followed by denaturation at 95°C for 5 minutes. The denatured samples were then separated by SDS-PAGE electrophoresis on a polyacrylamide gel. Proteins were transferred to a nitrocellulose membrane (0.45 µm NC membrane), blocked with blocking buffer at room temperature for 1 hour, and subjected to antibody incubation and development procedures according to the antibody manufacturer's instructions (Cell Signaling Technology).
(§4) Half-Maximal Degradation Concentration value (the drug concentration required for degrading proteins by 50%, abbreviated as DC50) reads method: comparing the grayscale values of Western blot bands from drug-treated samples with those from blank DMSO-treated controls, and identifying the drug concentration range at which the grayscale value is half that of the DMSO-treated control bands.
(§5) DC50 values can be calculated using ImageJ software to measure grayscale values of Western blot bands from drug-treated samples. The concentration-response curve is fitted to estimate the drug concentration corresponding to half the grayscale value.
(§6) Target protein remaining (%) refers to the percentage of target protein remaining in hPBMC cells after treatment with protein degrader compounds.
(§7) Calculation method for target protein remaining (%): Use ImageJ software to measure grayscale values of Western blot bands from drug (protein degrader)-treated samples. The grayscale value of drug-treated bands is divided by that of internal control protein bands, and the resulting quotient is normalized to obtain the relative percentage of remaining target protein after protein degrader treatment.
(§8) Target protein degradation rate (%) = 100% - target protein remaining (%).

CDK6 = biological target: T2, CDK6 (Homo sapiens, UniProt Q00534); assay: Western blot degradation of CDK6 (MDA-MB-231 Cell); format: cell-based; conditions: Table D3
T2 construct: evaluate the effects of the compounds of the present disclosure on the expression of target proteins in cells; endogenous in cells; host or cells: MDA-MB-231
Method: as §1, §2, §3, §4, §5, §6, §7, §8

T1 sequence (P11802 whole entry): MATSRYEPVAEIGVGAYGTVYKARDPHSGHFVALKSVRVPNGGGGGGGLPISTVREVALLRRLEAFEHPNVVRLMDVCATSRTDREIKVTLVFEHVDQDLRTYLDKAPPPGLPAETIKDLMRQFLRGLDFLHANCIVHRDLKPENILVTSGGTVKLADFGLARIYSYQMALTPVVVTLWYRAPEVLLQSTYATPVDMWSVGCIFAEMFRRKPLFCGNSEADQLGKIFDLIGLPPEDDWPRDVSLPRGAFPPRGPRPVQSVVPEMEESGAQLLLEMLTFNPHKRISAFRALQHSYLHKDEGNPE
T2 sequence (Q00534 whole entry): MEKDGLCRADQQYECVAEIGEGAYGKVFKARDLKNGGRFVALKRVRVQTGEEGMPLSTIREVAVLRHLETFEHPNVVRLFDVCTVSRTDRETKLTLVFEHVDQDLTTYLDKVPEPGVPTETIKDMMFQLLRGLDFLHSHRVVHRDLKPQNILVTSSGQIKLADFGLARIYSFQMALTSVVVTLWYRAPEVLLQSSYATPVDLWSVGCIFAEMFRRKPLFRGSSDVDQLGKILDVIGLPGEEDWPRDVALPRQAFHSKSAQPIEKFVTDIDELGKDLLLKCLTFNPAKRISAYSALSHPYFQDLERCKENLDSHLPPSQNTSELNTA

Compound	Degradation of substrate protein CDK4 (substrate protein remaining %) (CDK4)	Degradation of substrate protein CDK6 (substrate protein remaining %) (CDK6)
CN(C)C(=O)c1cc2cnc(Nc3ccc(N4CCC(N(C)Cc5cccc(NC6CCC(=O)NC6=O)c5)CC4)cn3)nc2n1C1CCCC1 (stereo not shown) [GT-06495, 7-cyclopentyl-2-((5-(4-((3-((2,6-dioxopiperidin-3-yl)amino)benzyl)(methyl)amino)piperidin-1-yl)pyridin-2-yl)amino)-N,N-dimethyl-7H-pyrrolo[2,3-d]pyrimidine-6-carboxamide]	A (A is defined as 0% ≤ substrate protein remaining % ≤ 80%)	A (A is defined as 0% ≤ substrate protein remaining % ≤ 80%)
CN(C)C(=O)c1cc2cnc(Nc3ccc(N4CCN(Cc5ccnc(C6CCC(=O)NC6=O)c5)CC4)cn3)nc2n1C1CCCC1 (stereo not shown) [GT-07478, 7-cyclopentyl-2-((5-(4-((2-(2,6-dioxopiperidin-3-yl)pyridin-4-yl)methyl)piperazin-1-yl)pyridin-2-yl)amino)-N,N-dimethyl-7H-pyrrolo[2,3-d]pyrimidine-6-carboxamide]	A (A is defined as 0% ≤ substrate protein remaining % ≤ 80%)	A (A is defined as 0% ≤ substrate protein remaining % ≤ 80%)
CN(C)C(=O)c1cc2cnc(Nc3ccc(N4CCN(Cc5ccc(N6CCC(=O)NC6=O)cn5)CC4)cn3)nc2n1C1CCCC1 [GT-06342, 7-cyclopentyl-2-((5-(4-((5-(2,4-dioxotetrahydropyrimidin-1(2H)-yl)pyridin-2-yl)methyl)piperazin-1-yl)pyridin-2-yl)amino)-N,N-dimethyl-7H-pyrrolo[2,3-d]pyrimidine-6-carboxamide]	A (A is defined as 0% ≤ substrate protein remaining % ≤ 80%)	A (A is defined as 0% ≤ substrate protein remaining % ≤ 80%)
CN(C)C(=O)c1cc2cnc(Nc3ccc(N4CCC(N(C)Cc5ccc(C6CCC(=O)NC6=O)cc5)CC4)cn3)nc2n1C1CCCC1 (stereo not shown) [GT-06490, 7-cyclopentyl-2-((5-(4-((4-(2,6-dioxopiperidin-3-yl)benzyl)(methyl)amino)piperidin-1-yl)pyridin-2-yl)amino)-N,N-dimethyl-7H-pyrrolo[2,3-d]pyrimidine-6-carboxamide]	A (A is defined as 0% ≤ substrate protein remaining % ≤ 80%)	B (B is defined as substrate protein remaining % > 80%)
CC(=O)c1c(C)c2cnc(Nc3ccc(N4CCN(Cc5ccnc(N6CCC(=O)NC6=O)c5)CC4)cn3)nc2n(C2CCCC2)c1=O [GT-07481, 1-(4-((4-(6-((6-acetyl-8-cyclopentyl-5-methyl-7-oxo-7,8-dihydropyrido[2,3-d]pyrimidin-2-yl)amino)pyridin-3-yl)piperazin-1-yl)methyl)pyridin-2-yl)dihydropyrimidine-2,4(1H,3H)-dione]	A (A is defined as 0% ≤ substrate protein remaining % ≤ 80%)	A (A is defined as 0% ≤ substrate protein remaining % ≤ 80%)
CC(=O)c1c(C)c2cnc(Nc3ccc(N4CCN(Cc5ccc(N6CCC(=O)NC6=O)cc5)CC4)cn3)nc2n(C2CCCC2)c1=O [GT-06576, 1-(4-((4-(6-((6-acetyl-8-cyclopentyl-5-methyl-7-oxo-7,8-dihydropyrido[2,3-d]pyrimidin-2-yl)amino)pyridin-3-yl)piperazin-1-yl)methyl)phenyl)dihydropyr imidine-2,4(1H,3H)-dione]	A (A is defined as 0% ≤ substrate protein remaining % ≤ 80%)	A (A is defined as 0% ≤ substrate protein remaining % ≤ 80%)
CN(C)C(=O)c1cc2cnc(Nc3ccc(N4CCN(Cc5ccc(C6CCC(=O)NC6=O)cc5)CC4)cn3)nc2n1C1CCCC1 (stereo not shown) [GT-06339, 7-cyclopentyl-2-((5-(4-(4-(2,6-dioxopiperidin-3-yl)benzyl)piperazin-1-yl)pyridin-2-yl)amino)-N,N-dimethyl-7H-pyrrolo[2,3-d]pyrimidine-6-carboxamide]	A (A is defined as 0% ≤ substrate protein remaining % ≤ 80%)	A (A is defined as 0% ≤ substrate protein remaining % ≤ 80%)
CN(C)C(=O)c1cc2cnc(Nc3ccc(N4CCC(N(C)Cc5ccc(N6CCC(=O)NC6=O)cc5)CC4)cn3)nc2n1C1CCCC1 [GT-06491, 7-cyclopentyl-2-((5-(4-((4-(2,4-dioxotetrahydropyrimidin-1(2H)-yl)benzyl)(methyl)amino)piperidin-1-yl)pyridin-2-yl)amino)-N,N-dimethyl-7H-pyrrolo[2,3-d]pyrimidine-6-carboxamide]	B (B is defined as substrate protein remaining % > 80%)	A (A is defined as 0% ≤ substrate protein remaining % ≤ 80%)
CN(C)C(=O)c1cc2cnc(Nc3ccc(N4CCN(Cc5cc(N6CCC(=O)NC6=O)ncc5F)CC4)cn3)nc2n1C1CCCC1 [GT-07474, 7-cyclopentyl-2-((5-(4-((2-(2,4-dioxotetrahydropyrimidin-1(2H)-yl)-5-fluoropyridin-4-yl)methyl)piperazin-1-yl)pyridin-2-yl)amino)-N,N-dimethyl-7H-pyrrolo[2,3-d]pyrimidine-6-carboxamide]	A (A is defined as 0% ≤ substrate protein remaining % ≤ 80%)	A (A is defined as 0% ≤ substrate protein remaining % ≤ 80%)
CN(C)C(=O)c1cc2cnc(Nc3ccc(N4CCN(Cc5ccc(N6CCC(=O)NC6=O)nc5)CC4)cn3)nc2n1C1CCCC1 [GT-06343, 7-cyclopentyl-2-((5-(4-((6-(2,4-dioxotetrahydropyrimidin-1(2H)-yl)pyridin-3-yl)methyl)piperazin-1-yl)pyridin-2-yl)amino)-N,N-dimethyl-7H-pyrrolo[2,3-d]pyrimidine-6-carboxamide]	A (A is defined as 0% ≤ substrate protein remaining % ≤ 80%)	A (A is defined as 0% ≤ substrate protein remaining % ≤ 80%)
CN(C)C(=O)c1cc2cnc(Nc3ccc(N4CCC(N(C)Cc5ccc(N6CCC(=O)NC6=O)cn5)CC4)cn3)nc2n1C1CCCC1 [GT-06493, 7-cyclopentyl-2-((5-(4-(((5-(2,4-dioxotetrahydropyrimidin-1(2H)-yl)pyridin-2-yl)methyl)(methyl)amino)piperidin-1-yl)pyridin-2-yl)amino)-N,N-dimethyl-7H-pyrrolo[2,3-d]pyrimidine-6-carboxamide]	A (A is defined as 0% ≤ substrate protein remaining % ≤ 80%)	B (B is defined as substrate protein remaining % > 80%)
CN(C)C(=O)c1cc2cnc(Nc3ccc(N4CCN(Cc5cccc(NC6CCC(=O)NC6=O)c5)CC4)cn3)nc2n1C1CCCC1 (stereo not shown) [GT-06344, 7-cyclopentyl-2-((5-(4-(3-((2,6-dioxopiperidin-3-yl)amino)benzyl)piperazin-1-yl)pyridin-2-yl)amino)-N,N-dimethyl-7H-pyrrolo[2,3-d]pyrimidine-6-carboxamide]	B (B is defined as substrate protein remaining % > 80%)	A (A is defined as 0% ≤ substrate protein remaining % ≤ 80%)
CN(C)C(=O)c1cc2cnc(Nc3ccc(N4CCN(Cc5cccc(N6CCC(=O)NC6=O)c5)CC4)cn3)nc2n1C1CCCC1 [GT-06341, 7-cyclopentyl-2-((5-(4-(3-(2,4-dioxotetrahydropyrimidin-1(2H)-yl)benzyl)piperazin-1-yl)pyridin-2-yl)amino)-N,N-dimethyl-7H-pyrrolo[2,3-d]pyrimidine-6-carboxamide]	A (A is defined as 0% ≤ substrate protein remaining % ≤ 80%)	A (A is defined as 0% ≤ substrate protein remaining % ≤ 80%)
CN(C)C(=O)c1cc2cnc(Nc3ccc(N4CCC(N(C)Cc5cccc(N6CCC(=O)NC6=O)c5)CC4)cn3)nc2n1C1CCCC1 [GT-06492, 7-cyclopentyl-2-((5-(4-((3-(2,4-dioxotetrahydropyrimidin-1(2H)-yl)benzyl)(methyl)amino)piperidin-1-yl)pyridin-2-yl)amino)-N,N-dimethyl-7H-pyrrolo[2,3-d]pyrimidine-6-carboxamide]	B (B is defined as substrate protein remaining % > 80%)	A (A is defined as 0% ≤ substrate protein remaining % ≤ 80%)
